Test results as given in paper PMC8198750, “Synthesis of Novel Halogenated Heterocycles Based on o-Phenylenediamine and Their Interactions with the Catalytic Subunit of Protein Kinase CK2” (Molecules, 2021).
Where two headings read alike, the source gives them in different places.

Experiments:
hCK2α [1] = biological target: T1, hCK2α (Homo sapiens, UniProt P68400); assay: nanoDSF thermal shift assay (low-volume differential scanning fluorimetry); format: binding
T1 construct: made in house
Experimental: Binding affinities of the newly synthesized compounds towards hCK2α were assessed with the low-volume differential scanning fluorimetry (nanoDSF). The shift of the temperature of thermal denaturation in the presence of 10-fold excess of a particular ligand relative to the apo form of hCK2α (ΔTm) can be used as a semi-qualitative measure of the binding affinity or inhibitory activity.
hCK2α was expressed and purified according to the method described previously. Thermal stability of 1:10 protein–ligand complexes was monitored on Prometheus (Nanotemper Technologies, München, Germany) using PR-C002 Prometheus NT.48 Standard Capillaries using temperature ramp of 20 to 80 °C with 1 °C/min heating rate. Temperature-induced variation in ratio fluorescence intensity at 330 and 350 nm was globally analyzed using the procedure described before. All experiments were performed in 25 mM Tris–HCl (pH 8, 0.5 M NaCl) with 2% (v/v) DMSO. Protein was kept in constant 2.5 μM concentration.

[2] = RP-HPLC chromatographic hydrophobicity index; format: physicochemical; settings: C18, 2:1 methanol:20 mM aqueous ammonium formate pH 8; τ = (Tret − T0)/T0
Experimental: RP-HPLC method, a fast and efficient alternative for standard logD determination in octan-1-ol/water system, was used to assess the hydrophobicity of all synthesized compounds. This method has been successfully used in our laboratory for halogenated benzotriazole derivatives, including the evaluation of the effect of hydrophobicity on their binding to the catalytic subunit of protein kinase CK2 [24, 43].
Chromatographic hydrophobicity index (log(τ)) was determined with the reverse phase HPLC (RP-HPLC). Column: Nova-pak® C18 4 μm, 4.6 × 250 mm. Eluent: 2:1 methanol: 20 mM aqueous ammonium formate (pH = 8) (v/v). Flow: 0.7 mL/min. Detector wavelength: 280 nm. The individual retention times (Tret) were converted to a hydrophobicity scale according to the formula τ = (Tret − T0)/T0. where the retention time of unretained solvent (T0) was estimated to 300 s.

CK2 = settings: cited from earlier work
[3] = test system: epidermoid carcinoma A-431; assay: MTT cell viability assay, A-431; format: cell-based; settings: Homo sapiens, 72 h
Excerpt: (§1) The following human cell lines were used in this study: (i) epidermoid carcinoma A-431 (ATCC® CRL-1555), (ii) colorectal carcinoma HCT116 (ATCC® CCL-247), (iii) colorectal carcinoma HCT116p53^−/−, and (iv) normal fibroblasts BJ (ATCC® CRL-2522). The HCT116p53^−/− cell line was a kind gift from professor Bert Vogelstein (John Hopkin’s University, Baltimore, MD, USA). The remaining cell lines were purchased from ATCC (Manassas, VA, USA) or Sigma Aldrich by Merck (Darmstadt, Germany).
(§2) Cells were cultured in Dulbecco’s modified Eagle’s or Roswell Park Memorial Institute (RPMI)-1640 medium supplemented with 10% or 15% fetal bovine serum (Gibco by Thermo Fisher Scientific, Waltham, MA, USA) under standard culture conditions (37 °C, 5% CO2) in a humidified incubator with atmospheric oxygen.
(§3) The viability of cells was assayed by measuring the conversion of MTT (3-(4,5-dimethylthiazol-2-yl)-2,5-diphenyltetrazolium bromide) to the formazan (the rate of this reaction is proportional to the number of surviving cells). Cells were seeded in a 96-well plate at a density of 1500–2500 cells per well, 24 h before treatment. Treatment with tested compounds and cisplatin (0.25–160 µM) was performed for 72 h. MTT stock solution (Sigma-Aldrich) was added at the final concentration 0.5 mg/mL. After 2 h of incubation at 37 °C, water-insoluble formazan was dissolved in a lysis buffer containing 20% SDS, 50% DMF, 2.5% hydrochloric acid, and 2.5% acetic acid. Optical densities were measured at 570 nm using a scanning multi-well spectrophotometer ([…] Detection Platform; Beckman Coulter, Brea, CA, USA).

[4] = test system: colorectal carcinoma HCT116; assay: MTT cell viability assay, HCT116; format: cell-based; settings: Homo sapiens, HCT-116, 72 h, read-out: IC50 HTC116
Excerpt: as §1, §2, §3

[5] = test system: colorectal carcinoma HCT116p53−/−; assay: MTT cell viability assay, HCT116p53−/−; format: cell-based; settings: Homo sapiens, 72 h
Excerpt: as §1, §2, §3

normal fibroblasts BJ = assay: MTT cell viability assay, BJ; format: cell-based, human; settings: for IC50: Homo sapiens, Fibroblast, MTT, 72 h
Excerpt: as §1, §2, §3

hCK2α [6] = biological target: T1, hCK2α; assay: Inhibitory activity against human CK2α (ADP-Glo kinase assay); format: biochemical; settings: inhibitor 1 nM–1 mM, triplicate
Experimental: The inhibitory effect of 8 selected compounds was monitored based on the luminescence measured with the SpectraMax iD3 Multi-Mode Microplate Reader (Molecular Devices, San Jose, CA, USA), using the previously described method with the aid of ADP-Glo kinase assay (Promega, Walldorf, Germany). Inhibitor concentration varied in the range of 1 nM–1 mM (see Supplementary Figure S38). Each experiment was repeated in triplicate and IC50 values were further estimated globally using the sigmoidal dose-response equation implemented in Origin 9.4 package (www.originlab.com, upgraded 20.07.27).

[7] = 10-fold excess of ligand (1:10 protein–ligand), 2.5 μM protein, relative to apo hCK2α, 2% DMSO, pH 8
[8] = read-out: IC50 against CK2 / inhibitory activity
[9] = 10-fold excess of ligand (1:10 protein–ligand), 2.5 μM protein, relative to apo hCK2α, 2% DMSO, pH 8, read-out: ΔTm

T1 sequence (P68400 whole entry): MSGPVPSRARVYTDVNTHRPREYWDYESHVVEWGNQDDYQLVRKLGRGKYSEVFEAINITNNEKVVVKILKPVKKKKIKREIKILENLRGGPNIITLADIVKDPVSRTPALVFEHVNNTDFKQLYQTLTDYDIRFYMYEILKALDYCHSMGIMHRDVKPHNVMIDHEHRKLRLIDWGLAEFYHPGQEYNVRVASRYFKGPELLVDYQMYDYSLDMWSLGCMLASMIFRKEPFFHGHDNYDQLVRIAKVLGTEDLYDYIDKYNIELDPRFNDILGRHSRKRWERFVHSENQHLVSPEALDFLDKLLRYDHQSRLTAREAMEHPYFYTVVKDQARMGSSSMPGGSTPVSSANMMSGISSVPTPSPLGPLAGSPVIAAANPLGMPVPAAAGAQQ

Row | Compound | log(τ) HPLC-derived hydrophobicity index [2] | ΔTm at 25 µM (hCK2α [1]; [9]) [°C] | also measured
1 | 6,7-dichloroquinoxaline-1,3-diol [Compound 7c] | −0.227 | – | ΔTm (hCK2α [1]; [7]): 1.2 ± 0.1 °C
2 | O=c1[nH]c2c(Br)c(Br)c(Br)c(Br)c2[nH]1 [4,5,6,7-tetrabromo-1H-benzo[d]imidazol-2(3H)-one] | – | – | Ki (CK2): 0.2 µM; IC50 (CK2; read-out: IC50 CK2): 0.39 µM
3 | FC(F)(F)c1nc2c(Br)c(Br)c(Br)cc2[nH]1 [4,5,6-tribrominated] | – | – | IC50 (CK2; [8]): 1.2 µM
4 | Nc1ccccc1N [Compound 1a, benzo-1,2-diamine] | −0.651 | – | ΔTm at 25 µM (hCK2α [1]; pH 8, read-out: ΔTm): -0.1 ± 0.1 °C
5 | Nc1cc(F)c(F)cc1N [Compound 1b] | −0.591 | -0.1 ± 0.1 | –
6 | Nc1cc(Cl)c(Cl)cc1N [Compound 1c] | −0.298 | 0.1 ± 0.1 | –
7 | Nc1cc(Br)c(Br)cc1N [Compound 1d] | −0.208 | 0.2 ± 0.1 | –
8 | Nc1cc(I)c(I)cc1N [Compound 1e, 4,5-diiodobenzene-1,2-diamine] | −0.093 | 1.7 ± 0.1 | –
9 | c1ccc2nsnc2c1 [Compound 2a, 2,1,3-benzothiadiazole] | 0.009 | 0 | –
10 | Fc1cc2nsnc2cc1F [Compound 2b, 5,6-difluoro-2,1,3-benzothiadiazole] | 0.169 | -0.3 ± 0.1 | –
11 | Clc1cc2nsnc2cc1Cl [Compound 2c, 5,6-dichloro-2,1,3-benzothiadiazole] | 0.179 | 0.2 ± 0.1 | –
12 | Brc1cc2nsnc2cc1Br [Compound 2d, 5,6-dibromo-2,1,3-benzothiadiazole] | 0.461 | 0.2 ± 0.1 | –
13 | Ic1cc2nsnc2cc1I [Compound 2e, 5,6-diiodo-2,1,3-benzothiadiazole] | 0.468 | 0.2 ± 0.1 | –
14 | FC(F)(F)c1nc2ccccc2[nH]1 [Compound 3a, 2-trifluoromethylo-1H-benzimidazole] | −0.270 | – | ΔTm at 25 µM (hCK2α [1]; pH 8, read-out: ΔTm): 0.4 ± 0.1 °C
15 | Fc1cc2nc(C(F)(F)F)[nH]c2cc1F [Compound 3b, 5,6-difluoro-2-trifluoromethylo-1H-benzimidazole] | −0.095 | 0.8 ± 0.1 | –
16 | FC(F)(F)c1nc2cc(Cl)c(Cl)cc2[nH]1 [Compound 3c, 5,6-dichlorlo-2-trifluoromethylo-1H-benzimidazole] | 0.234 | 1.2 ± 0.1 | –
17 | FC(F)(F)c1nc2cc(I)c(I)cc2[nH]1 [Compound 3e, 5,6-diiodo-2-trifluoromethylo-1H-benzimidazole] | 0.409 | 4.3 ± 0.1 | IC50 [3]: 7 ± 1 µM; IC50 [4]: 6 ± 1 µM; IC50 [5]: 6 ± 1 µM; IC50 (normal fibroblasts BJ): 55 ± 5 µM; selectivity index (normal fibroblasts BJ; relative to BJ fibroblasts): ~ 10; IC50 (hCK2α [6]): 7 ± 4 µM
18 | FC(F)(F)c1nc2c(Br)c(Br)c(Br)c(Br)c2[nH]1 [tetrabrominated] | – | – | IC50 (CK2; [8]): 0.6 µM
19 | quinoxaline-1,3-diol [Compound 7a] | −0.699 | – | ΔTm (hCK2α [1]; [7]): 0.1 ± 0.1 °C

The next lines start with results.

Row | log(τ) HPLC-derived hydrophobicity index [2] | ΔTm at 25 µM (hCK2α [1]; [9]) [°C] | Compound | also measured
20 | −0.548 | – | 6,7-difluoroquinoxaline-1,3-diol [Compound 7b] | ΔTm (hCK2α [1]; [7]): 0.2 ± 0.1 °C
21 | −0.579 | 0.4 ± 0.1 | OCc1nc2ccccc2[nH]1 [Compound 4a, 2-hydroxymethylo-1H-benzimidazole] | –
22 | −0.079 | 0.7 ± 0.1 | OCc1nc2cc(Cl)c(Cl)cc2[nH]1 [Compound 4c, 5,6-dichloro-2-hydroxymethylo-1H-benzimidazole] | –
23 | 0.010 | 1.9 ± 0.1 | OCc1nc2cc(Br)c(Br)cc2[nH]1 [Compound 4d, 5,6-dibromo-2-hydroxymethylo-1H-benzimidazole] | IC50 [3]: 45 ± 5 µM; IC50 [4]: 21 ± 1 µM; IC50 [5]: 28 ± 3 µM; IC50 (normal fibroblasts BJ): 145 ± 15 µM; IC50 (hCK2α [6]): > 1000 µM
24 | 0.088 | 3.7 ± 0.1 | OCc1nc2cc(I)c(I)cc2[nH]1 [Compound 4e, 5,6-diiodo-2-hydroxymethylo-1H-benzimidazole] | IC50 [3]: 39 ± 10 µM; IC50 [4]: 20 ± 2 µM; IC50 [5]: 23 ± 2 µM; IC50 (normal fibroblasts BJ): 15 ± 2 µM; IC50 (hCK2α [6]): 25 ± 5 µM
25 | −0.591 | 0.8 ± 0.1 | O=c1[nH]c2ccccc2[nH]1 [Compound 5a, 1H-benzo[d]imidazol-2(3H)-one] | –
26 | −0.084 | 0.8 ± 0.1 | O=c1[nH]c2cc(Cl)c(Cl)cc2[nH]1 [Compound 5c, 5,6-dichloro-1H-benzo[d]imidazol-2(3H)-one] | –
27 | 0.003 | 1.8 ± 0.1 | O=c1[nH]c2cc(Br)c(Br)cc2[nH]1 [Compound 5d, 5,6-dibromo-1H-benzo[d]imidazol-2(3H)-one] | IC50 [3]: 180 ± 40 µM; IC50 [4]: 18 ± 3 µM; IC50 [5]: 22 ± 3 µM; IC50 (normal fibroblasts BJ): 40 ± 5 µM; IC50 (hCK2α [6]): > 1000 µM
28 | 0.082 | 2.4 ± 0.1 | O=c1[nH]c2cc(I)c(I)cc2[nH]1 [Compound 5e, 5,6-diiodo-1H-benzo[d]imidazol-2(3H)-one] | IC50 (hCK2α [6]): 13 ± 2 µM
29 | −0.295 | -0.1 ± 0.1 | c1ccc2nccnc2c1 [Compound 6a, quinoxaline] | –
30 | 0.495 | 0.1 ± 0.1 | Clc1cc2nccnc2cc1Cl [Compound 6c, 6,7-dichloroquinoxaline] | –
31 | 0.588 | 0.4 ± 0.1 | Brc1cc2nccnc2cc1Br [Compound 6d, 6,7-dibromoquinoxaline] | –
32 | 0.618 | 0.4 ± 0.1 | Ic1cc2nccnc2cc1I [Compound 6e, 6,7-diiodoquinoxaline] | –
33 | −0.174 | 2.7 ± 0.1 | Oc1nc2cc(Br)c(Br)cc2nc1O [Compound 7d] | IC50 [3]: 385 ± 82 µM; IC50 [4]: 195 ± 35 µM; IC50 [5]: 850 ± 300 µM; IC50 (normal fibroblasts BJ): 16 ± 2 µM; IC50 (hCK2α [6]): 13 ± 4 µM
